Test results taken from PubChem BioAssay AID504564 (Southern Research Specialized Biocontainment Screening …, 2011).
Active and inactive are the calls of the source. The rule behind the calls is not given here. Where a SMILES comes first, the peptide text is derived from it.

Assays:
[1] = tested on: M. tuberculosis H37Rv growth inhibition, no glycerol; assay: Mycobacterium tuberculosis H37Rv growth inhibition, absence of glycerol, confirmatory assay (AID 504564); details: for IC90: 90% growth inhibition concentration
[2] = as above; details: M. tuberculosis H37Rv growth inhibition, no glycerol; at 25 µM (top of the series)

SMILES | IC50 [1] | IC90 [1] | growth inhibition [2]
CCC(C)Nc1ccc(NC(C)CC)cc1 (stereo not given) | 590 nM | 990 nM | –
Cc1ccc(C(=O)N/N=C(/CC(=O)c2cccs2)C(F)(F)F)cc1 | 560 nM | 890 nM | –
Cc1cccc(/C=C/C(=O)c2ccc([N+](=O)[O-])o2)c1 | 20 nM | 20 nM | –
Cc1ccc2ccc3ccc(C)nc3c2n1 | 160 nM | 450 nM | –
CCOC(=O)COn1c2c(c3c4no[n+]([O-])c4ccc31)CCCC2 | 1580 nM | 3040 nM | –
COC(=O)c1ccc(CNc2c(N3CCCC3)c(=O)c2=O)cc1 | – | – | -5.07% (inactive)
CCOC(=O)COc1ccc(/C=C2\NC(=S)N(CC)C2=O)cc1 | 1680 nM | 4460 nM | –
O=C(/C=C\c1cccs1)N1CCN(Cc2ccc3c(c2)OCO3)CC1 | 140 nM | 330 nM | –
COC(=O)c1cc(=O)n(-c2ccc(F)cc2)c(=Nc2ccc(F)cc2)s1 | 300 nM | 1100 nM | –
COC(=O)CCc1nc2c(C#N)c(-c3ccc(Cl)cc3)ccn2n1 | 840 nM | 3540 nM | –
CCc1ccc(/C=C2/C(=O)N(C)C(=S)N2CC(=O)OC)s1 | 460 nM | 1910 nM | –
CCOC1OC(=O)C(Cl)=C1Nc1ccccc1C (stereo not given) | 2660 nM | 4410 nM | –
c1ccc(/N=C2\N=C(Nc3ccccn3)c3ccccc32)nc1 | 20 nM | 30 nM | –
CCOC(=O)c1ccc(NC(=O)Cn2ncc(Cl)c(Cl)c2=O)cc1 | 90 nM | 280 nM | –
Oc1ccccc1/C=N/Nc1ccnc(SCc2ccccc2)n1 | – | – | 0.48% (inactive)
CC(C)NC(=O)c1sc(=S)n2c1[nH]c(=O)c1ccc(C(=O)NCCc3ccc(Cl)cc3)cc12 | 210 nM | 430 nM | –
COC(=O)C1CC(=O)N(c2ccc(OCc3ccccc3Cl)cc2)C1 (stereo not given) | 340 nM | 2630 nM | –
O=C(/C=C/c1ccccc1)N1CCN(CCN2C(=O)c3cccc4cccc(c34)C2=O)CC1 | 1520 nM | 4020 nM | –
CNc1nc(SCc2ccccc2Cl)nc2c1CCCC2 | 430 nM | 1060 nM | –
O=C(CSc1nc2ccccc2c(=O)[nH]1)NCc1ccc(Cl)cc1 | 300 nM | 660 nM | –

SMILES | IC50 [1] | IC90 [1] | growth inhibition [2]
Cc1nc(SCC(=O)NC2CCCCC2)[nH]c(=O)c1C | 250 nM | 740 nM | –
Nc1c(C(=O)NC2CCCCC2)nsc1C(=O)OCC(=O)NC1CCCCC1 | 450 nM | 1230 nM | –
Cc1ccc2c(c1)c(C1=c3ccccc3=NC1=O)c(O)n2C | 490 nM | 1500 nM | –
Cc1cc(Br)ccc1NC(=O)c1cnc(N2CCN(c3ccccn3)CC2)c2ccccc12 | 850 nM | 2540 nM | –
CCOC(=O)C(C)Sc1ncnc2c1nnn2-c1ccc(F)cc1 (stereo not given) | 450 nM | 4760 nM | –
CC[N+](C)(CC)CCCCOc1ccc2c(c1)C(=O)c1cc(OCCCC[N+](C)(CC)CC)ccc1-2 | 700 nM | 1200 nM | –
Cc1ccc(NC(=O)C2C3/C=C\CCCCC32)cc1C (stereo not given) | 1870 nM | > 25000 nM | –
O=C1C(Br)=Cc2cccc3cccc1c23 | 60 nM | 170 nM | –
COC(=O)C(C)Oc1ccc(-c2nccc(-c3ccccn3)n2)cc1 (stereo not given) | 1640 nM | 4320 nM | –
O=C(CSc1nc2ccccc2c(=O)[nH]1)NC1CCCCC1 | < 10 nM | < 10 nM | –
O=C(NCC(c1cccs1)N1CCOCC1)c1cc([N+](=O)[O-])cc([N+](=O)[O-])c1 (stereo not given) | 150 nM | 310 nM | –
Cc1cccc(-c2oc3ccc(-c4ccc5c(c4)OCO5)cc3c2C#Cc2cncn2C)c1 | 2220 nM | 2930 nM | –
CC1CCN(C(=O)C2CCN(c3nnc(-n4cccc4)s3)CC2)CC1 | 1150 nM | 2830 nM | –
S=c1nc[nH]c2nc[nH]c12 | 1030 nM | 1520 nM | –
CC(=NCc1ccc2c(c1)OCO2)C1=C(O)c2ccccc2C1=O | 70 nM | 600 nM | –
CCOC(=O)CNC(=O)[C@H](Cc1ccccc1)NC(=O)OCc1ccccc1 (HELM PEPTIDE1{[O=C(OCc1ccccc1)[*:2]].F.G.[CCO[*:1]]}$$$$V2.0) | 1080 nM | 2500 nM | –
COc1cc(NC(=O)C/C(C)=N/NC(=O)c2ccccn2)c(OC)cc1Cl | 2060 nM | 6770 nM | –
Cc1nn2c(NCc3ccccn3)cc(C(C)C)nc2c1-c1ccccc1 | 640 nM | 1200 nM | –
COC(=O)C(Nc1nc(SCC(=O)NC2CCCCC2)nc2ccccc12)c1ccccc1 (stereo not given) | – | – | 3.49% (inactive)
